Literature values as cited in PubChem BioAssay AID1259409 (Chemical Carcinogenesis Research Information System (CCRIS), 2018).

Test system: rodent chemically induced tumor inhibition, incidence and multiplicity
Assay: CCRIS tumor inhibitor studies
Settings: Route [Inhibitor]: ORAL

SMILES: Cc1c(-c2cnccn2)ssc1=S
- tumour outcome (control, treated, inhibition, significance) (Carcinogen: DIETHYLNITROSAMINE, 55-18-5, Dose [Inhibitor]: 0, 600 MG/KG DIET FOR DURATION OF STUDY BEGINNING 1 WK PRIOR TO CARCINOGEN TREATMENT (STUDY DURATION: 25 WK), Species: HAMSTER, Strain/Sex: SYRIAN/MALE, Target Tissue: Type of Lesion: TRACHEA: PAPILLOMA, Dose [Carcinogen]: 17.8 MG/KG BW 2/WK FOR 20 WK, Promoter: NONE USED): 100%, 95%, 5%, not significant
- tumour outcome (control, treated, inhibition, significance) (Carcinogen: N-BUTYL-N(4-HYDROXYBUTYL)NITROSAMINE, 3817-11-6, Dose [Inhibitor]: 0, 250 MG/KG DIET FOR 6 MO BEGINNING 1 WK PRIOR TO CARCINOGEN TREATMENT (STUDY DURATION: 6 MO), Species: MOUSE, Strain/Sex: BDF/MALE, Target Tissue: Type of Lesion: URINARY BLADDER: CARCINOMA, Dose [Carcinogen]: 7.5 MG IN 0.1 ML ETHANOL:WATER (20:80) 1/WK FOR 8 WK, Promoter: NONE USED): 35/78 (45%), 23/76 (30%), 33%, p<0.05
- tumour outcome (control, treated, inhibition, significance) (Carcinogen: N-BUTYL-N-(4-HYDROXYBUTYL)NITROSAMINE, 3817-11-6, Dose [Inhibitor]: 0, 100 MG/KG DIET FOR 6 MO BEGINNING 1 WK PRIOR TO CARCINOGEN TREATMENT (STUDY DURATION: 6 MO), Species: MOUSE, Strain/Sex: BDF/MALE, Target Tissue: Type of Lesion: URINARY BLADDER: CARCINOMA, Dose [Carcinogen]: 7.5 MG IN 0.1 ML ETHANOL:WATER (20:80) 1 WK FOR 8 WK, Promoter: NONE USED): 27/70 (39%), 27/70 (39%), 0%, not significant
- tumour outcome (control, treated, inhibition, significance) (Carcinogen: N-BUTYL-N-(4-HYDROXYBUTYL)NITROSAMINE, 3817-11-6, Dose [Inhibitor]: 0, 200 MG/KG DIET FOR 6 MO BEGINNING 1 WK PRIOR TO CARCINOGEN TREATMENT (STUDY DURATION: 6 MO), Species: MOUSE, Strain/Sex: BDF/MALE, Target Tissue: Type of Lesion: URINARY BLADDER: CARCINOMA, Dose [Carcinogen]: 7.5 MG IN 0.1 ML ETHANOL:WATER (20:80) 1/WK FOR 8 WK, Promoter: NONE USED): 30/73 (41%), 27/71 (38%), 7%, not calculated
- tumour outcome (control, treated, inhibition, significance) (Carcinogen: N-BUTYL-N-(4-HYDROXYBUTYL)NITROSAMINE, 3817-11-6, Dose [Inhibitor]: 0, 500 MG/KG DIET FOR 76 D THEN 125 MG/KG DIET FOR DURATION OF STUDY (STUDY DURATION: 6 MO), Species: MOUSE, Strain/Sex: BDF/MALE, Target Tissue: Type of Lesion: URINARY BLADDER: CARCINOMA, Dose [Carcinogen]: 7.5 MG IN 0.1 ML ETHANOL:WATER (20:80) 1/WK FOR 8 WK, Promoter: NONE USED): 35/78 (45%), 23/78 (29%), 36%, p<0.05
- tumour outcome (control, treated, inhibition, significance) (Carcinogen: N-METHYL-N'-NITRO-N-NITROSOGUANIDINE, 70-25-7, Dose [Inhibitor]: 0, 0.02% IN DIET FOR 12 WK BEGINNING 1 WK PRIOR TO CARCINOGEN TREATMENT (STUDY DURATION: 80 WK), Species: RAT, Strain/Sex: WISTAR/MALE, Target Tissue: Type of Lesion: GLANDULAR STOMACH: ADENOCARCINOMA, Dose [Carcinogen]: 100 PPM IN DRINKING WATER FOR 10 WK, Promoter: NONE USED): 17/30 (57%), 11/30 (37%), 35%, not calculated
- tumour outcome (control, treated, inhibition, significance) (Carcinogen: N-METHYL-N'-NITRO-N-NITROSOGUANIDINE, 70-25-7, Dose [Inhibitor]: 0, 0.04% IN DIET FOR 12 WK BEGINNING 1 WK PRIOR TO CARCINOGEN TREATMENT (STUDY DURATION: 80 WK), Species: RAT, Strain/Sex: WISTAR/MALE, Target Tissue: Type of Lesion: GLANDULAR STOMACH: ADENOCARCINOMA, Dose [Carcinogen]: 100 PPM IN DRINKING WATER FOR 10 WK, Promoter: NONE USED): 17/30 (57%), 5/30 (17%), 70%, p<0.01
- tumour outcome (control, treated, inhibition, significance) (Carcinogen: N-METHYL-N'-NITRO-N-NITROSOGUANIDINE, 70-25-7, Dose [Inhibitor]: 0, 0.04% IN DIET FOR 12 WK BEGINNING 1 WK PRIOR TO CARCINOGEN TREATMENT (STUDY DURATION: 81 WK), Species: RAT, Strain/Sex: WISTAR/MALE, Target Tissue: Type of Lesion: GLANDULAR STOMACH: ADENOCARCINOMA, Dose [Carcinogen]: 100 PPM IN DRINKING WATER FOR 10 WK, Promoter: NONE USED): 17/30 (57%), 5/30 (17%), 70%, p<0.01
- tumour outcome (control, treated, inhibition, significance) (Carcinogen: N-METHYL-N'-NITRO-NITROSOGUANIDINE, 70-25-7, Dose [Inhibitor]: 0, 0.02% IN DIET FOR 12 WK BEGINNING 1 WK PRIOR TO CARCINOGEN TREATMENT (STUDY DURATION: 81 WK), Species: RAT, Strain/Sex: WISTAR/MALE, Target Tissue: Type of Lesion: GLANDULAR STOMACH: ADENOCARCINOMA, Dose [Carcinogen]: 100 PPM IN DRINKING WATER FOR 10 WK, Promoter: NONE USED): 17/30 (57%), 11/30 (37%), 35%, not significant
- outcome (Carcinogen: N-NITROSOBIS(2-OXOPROPYL)AMINE, 60599-38-4, Dose [Inhibitor]: 0, 300 MG/KG IN DIET FOR 28 WK BEGINNING 2 WK PRIOR TO CARCINOGEN TREATMENT (STUDY DURATION: 28 WK), Species: HAMSTER, Strain/Sex: SYRIAN/FEMALE, Target Tissue: Type of Lesion: PANCREAS: DUCTAL ADENOCARCINOMA, Dose [Carcinogen]: 15 MG/KG BW 1/WK FOR 12 WK, Promoter: NONE USED): 17/19 (89%), 14/16 (88%), 1 %, not significant
- tumour outcome (control, treated, inhibition, significance) (Carcinogen: N-NITROSOBIS(2-OXOPROPYL)AMINE, 60599-38-4, Dose [Inhibitor]: 0, 600 MG/KG IN DIET FOR 28 WK BEGINNING 2 WK PRIOR TO CARCINOGEN TREATMENT (STUDY DURATION: 28 WK), Species: HAMSTER, Strain/Sex: SYRIAN/FEMALE, Target Tissue: Type of Lesion: PANCREAS: DUCTAL ADENOCARCINOMA, Dose [Carcinogen]: 15 MG/KG BW 1/WK FOR 12 WK, Promoter: NONE USED): 17/19 (89%), 9/15 (60%), 33%, p<0.05
- tumour outcome (control, treated, inhibition, significance) (Carcinogen: NITROSOBIS(2-OXOPROPYL)AMINE [60599-38-4], Dose [Inhibitor]: 200 PPM IN DIET FOR 4 WK BEGINNING 1 WK PRIOR TO FIRST CARCINOGEN DOSE (STUDY DURATION: 52 WK), Species: HAMSTER, Strain/Sex: SYRIAN/FEMALE, Target Tissue: Type of Lesion: GALL BLADDER: ADENOMA, Dose [Carcinogen]: 10 MG/KG BW 1X/WK FOR 3 WK (STUDY DURATION: 52 WK)): 13.3%, 21.7%, -63%, not significant
- tumour outcome (control, treated, inhibition, significance) (Carcinogen: NITROSOBIS(2-OXOPROPYL)AMINE [60599-38-4], Dose [Inhibitor]: 200 PPM IN DIET FOR 4 WK BEGINNING 1 WK PRIOR TO FIRST CARCINOGEN DOSE (STUDY DURATION: 52 WK), Species: HAMSTER, Strain/Sex: SYRIAN/FEMALE, Target Tissue: Type of Lesion: KIDNEY: RENAL CELL ADENOMA, Dose [Carcinogen]: 10 MG/KG BW 1X/WK FOR 3 WK (STUDY DURATION: 52 WK)): 3.3%, 3.4%, -3%, not significant
- tumour outcome (control, treated, inhibition, significance) (Carcinogen: NITROSOBIS(2-OXOPROPYL)AMINE [60599-38-4], Dose [Inhibitor]: 200 PPM IN DIET FOR 4 WK BEGINNING 1 WK PRIOR TO FIRST CARCINOGEN DOSE (STUDY DURATION: 52 WK), Species: HAMSTER, Strain/Sex: SYRIAN/FEMALE, Target Tissue: Type of Lesion: KIDNEY: RENAL CELL CARCINOMA, Dose [Carcinogen]: 10 MG/KG BW 1X/WK FOR 3 WK (STUDY DURATION: 52 WK)): 6.7%, 10.3%, -54%, not significant
- tumour outcome (control, treated, inhibition, significance) (Carcinogen: NITROSOBIS(2-OXOPROPYL)AMINE [60599-38-4], Dose [Inhibitor]: 200 PPM IN DIET FOR 4 WK BEGINNING 1 WK PRIOR TO FIRST CARCINOGEN DOSE (STUDY DURATION: 52 WK), Species: HAMSTER, Strain/Sex: SYRIAN/FEMALE, Target Tissue: Type of Lesion: LIVER: CHOLANGIOCELLULAR ADENOMA, Dose [Carcinogen]: 10 MG/KG BW 1X/WK FOR 3 WK (STUDY DURATION: 52 WK)): 6.7%, 0.0%, 100%, not significant
- outcome (Carcinogen: NITROSOBIS(2-OXOPROPYL)AMINE [60599-38-4], Dose [Inhibitor]: 200 PPM IN DIET FOR 4 WK BEGINNING 1 WK PRIOR TO FIRST CARCINOGEN DOSE (STUDY DURATION: 52 WK), Species: HAMSTER, Strain/Sex: SYRIAN/FEMALE, Target Tissue: Type of Lesion: LIVER: CHOLANGIOCELLULAR CARCINOMA, Dose [Carcinogen]: 10 MG/KG BW 1X/WK FOR 3 WK (STUDY DURATION: 52 WK)): 0.0%, 10.3%, -100%, not significant
